Measurements as given in patent US20240308996A1, “PYRIDOPYRIDINES AND DERIVATIVES THEREOF AS SELECTIVE KINASE INHIBITORS” (University of Sharjah, priority 2023, published 2024).

Key:
Assay type in all cases: cell-based
[1] = test system: OVCAR-4; experiment: NCI-60 cell line panel: OVCAR-4; details: Ovarian Cancer; for IC50: Homo sapiens; for TGI: total growth inhibition, in µM (unit assumed)
Protocol: (§1) It was carried out at the NCI, Bethesda, MD, USA, utilizing their standard protocol.

[2] = test system: KM12; experiment: NCI-60 cell line panel: KM12; details: Colon Cancer; for TGI: total growth inhibition; for IC50: Homo sapiens
Protocol: as §1

[3] = test system: MALME-3M; experiment: NCI-60 cell line panel: MALME-3M; details: Melanoma; for IC50: Homo sapiens; for TGI: total growth inhibition, in µM (unit assumed)
Protocol: as §1

[4] = test system: OVCAR-8; experiment: NCI-60 cell line panel: OVCAR-8; details: Ovarian Cancer; for IC50: Homo sapiens; for TGI: total growth inhibition, in µM (unit assumed)
Protocol: as §1

[5] = test system: TK-10; experiment: NCI-60 cell line panel: TK-10; details: Renal Cancer; for IC50: Homo sapiens; for TGI: total growth inhibition
Protocol: as §1

[6] = test system: RPMI-8226; experiment: NCI-60 cell line panel: RPMI-8226; details: Leukemia; for IC50: Homo sapiens; for TGI: total growth inhibition
Protocol: as §1

[7] = test system: NCI-H322M; experiment: NCI-60 cell line panel: NCI-H322M; details: Non-Small Cell Lung Cancer; for IC50: Homo sapiens; for TGI: total growth inhibition
Protocol: as §1

[8] = test system: MOLT-4; experiment: NCI-60 cell line panel: MOLT-4; design: TGI: unit not given here; details: Leukemia; for IC50: Homo sapiens; for TGI: total growth inhibition
Protocol: as §1

[9] = test system: SK-MEL-2; experiment: NCI-60 cell line panel: SK-MEL-2; design: TGI: unit not given here; details: Melanoma; for IC50: Homo sapiens; for TGI: total growth inhibition
Protocol: as §1

[10] = test system: IGROV1; experiment: NCI-60 cell line panel: IGROV1; details: for IC50: Homo sapiens, IGROV-1, Ovarian Cancer; for TGI: Ovarian Cancer, total growth inhibition
Protocol: as §1

[11] = test system: SNB-19; experiment: NCI-60 cell line panel: SNB-19; details: CNS Cancer; for TGI: total growth inhibition; for IC50: Homo sapiens
Protocol: as §1

[12] = test system: UACC-62; experiment: NCI-60 cell line panel: UACC-62; details: Melanoma; for IC50: Homo sapiens; for TGI: total growth inhibition
Protocol: as §1

[13] = test system: HOP-92; experiment: NCI-60 cell line panel: HOP-92; design: TGI: unit not given here; details: Non-Small Cell Lung Cancer; for IC50: Homo sapiens; for TGI: total growth inhibition
Protocol: as §1

[14] = test system: UACC-257; experiment: NCI-60 cell line panel: UACC-257; details: Melanoma; for IC50: Homo sapiens; for TGI: total growth inhibition
Protocol: as §1

[15] = test system: CAKI-1; experiment: NCI-60 cell line panel: CAKI-1; design: TGI: unit not given here; details: Renal Cancer; for IC50: Homo sapiens; for TGI: total growth inhibition
Protocol: as §1

[16] = test system: OVCAR-3; experiment: NCI-60 cell line panel: OVCAR-3; details: Ovarian Cancer; for IC50: Homo sapiens; for TGI: total growth inhibition
Protocol: as §1

[17] = test system: Hep3B; experiment: MTT assay, Hep3B HCC cell line; details: Homo sapiens, 48 h, mean of triplicate assays ± SEM
Protocol: (§2) Two HCC cell lines (Hep3B and HepG2) were used for screening the antiproliferative activity of the synthesized compounds. The cell lines were obtained from the European Collection of Cell Cultures (ECACC, UK) and maintained in Dulbecco's Modified Eagle Medium (DMEM: Sigma-Aldrich) supplemented with 10% fetal bovine serum (FBS) and 1% penicillin/streptomycin and incubated at 37° C. in a 5% CO2 air atmosphere. In addition, WI-38 normal cell line was used to investigate the safety of these compounds.
(§3) MTT assay was conducted to calculate the IC50 of the compounds following the reported procedure . Briefly, the cells were seeded in 96-well tissue culture plates with a density of 5×10^4 cells/well and incubated overnight at 37° C. in a 5% CO2 air atmosphere. […] DMSO was used as a negative control. After 48 h, the media were aspirated, and replaced with media containing 0.5 mg/mL of MTT tetrazolium dye (Sigma-Aldrich) for 2 h at 37° C. Finally, the media were removed and 200 μL of DMSO was added to solubilize the formazan crystals. Absorbance was then measured at 570 nm using Varioskan Flash multimode plate reader (Thermo Scientific, Massachusetts, USA).

[18] = test system: SK-MEL-5; experiment: NCI-60 cell line panel: SK-MEL-5; details: Melanoma; for IC50: Homo sapiens; for TGI: total growth inhibition
Protocol: as §1

[19] = test system: HOP-62; experiment: NCI-60 cell line panel: HOP-62; details: Non-Small Cell Lung Cancer; for IC50: Homo sapiens; for TGI: total growth inhibition
Protocol: as §1

[20] = test system: SF-295; experiment: NCI-60 cell line panel: SF-295; details: CNS Cancer; for TGI: total growth inhibition, unit assumed; for IC50: Homo sapiens
Protocol: as §1

[21] = test system: HL-60(TB); experiment: NCI-60 cell line panel: HL-60(TB); design: TGI: unit not given here; details: Leukemia; for IC50: Homo sapiens; for TGI: total growth inhibition
Protocol: as §1

[22] = test system: HT29; experiment: NCI-60 cell line panel: HT29; details: for TGI: Colon Cancer, total growth inhibition; for IC50: Homo sapiens, HT-29, Colon Cancer
Protocol: as §1

[23] = test system: MDA-MB-468; experiment: NCI-60 cell line panel: MDA-MB-468; details: Breast Cancer; for TGI: total growth inhibition; for IC50: Homo sapiens
Protocol: as §1

[24] = test system: HS 578T; experiment: NCI-60 cell line panel: HS 578T; details: for TGI: Breast Cancer, HS 578T, total growth inhibition; for IC50: Homo sapiens, Hs-578T
Protocol: as §1

[25] = test system: SNB-75; experiment: NCI-60 cell line panel: SNB-75; design: TGI: unit not given here; details: CNS Cancer; for TGI: total growth inhibition; for IC50: Homo sapiens
Protocol: as §1

[26] = test system: HCT-15; experiment: NCI-60 cell line panel: HCT-15; details: Colon Cancer; for TGI: total growth inhibition; for IC50: Homo sapiens
Protocol: as §1

[27] = test system: HepG2; experiment: MTT assay, HepG2 HCC cell line; details: Homo sapiens, 48 h, mean of triplicate assays ± SEM
Protocol: as §2, §3

[28] = test system: NCI-H460; experiment: NCI-60 cell line panel: NCI-H460; details: Non-Small Cell Lung Cancer; for IC50: Homo sapiens; for TGI: total growth inhibition
Protocol: as §1

[29] = test system: T-47D; experiment: NCI-60 cell line panel: T-47D; details: Breast Cancer; for TGI: total growth inhibition; for IC50: Homo sapiens, T47D
Protocol: as §1

[30] = test system: U251; experiment: NCI-60 cell line panel: U251; design: TGI: unit not given here; details: for TGI: CNS Cancer, total growth inhibition; for IC50: Homo sapiens, U-251, CNS Cancer
Protocol: as §1

[31] = test system: COLO 205; experiment: NCI-60 cell line panel: COLO 205; design: TGI: unit not given here; details: Colon Cancer; for TGI: total growth inhibition; for IC50: Homo sapiens
Protocol: as §1

[32] = test system: EKVX; experiment: NCI-60 cell line panel: EKVX; details: Non-Small Cell Lung Cancer; for IC50: Homo sapiens; for TGI: total growth inhibition, in µM (unit assumed)
Protocol: as §1

CNC(=O)c1cc(-c2ccc(NC(=O)Nc3ccc(N4CCN(C)CC4)c(C(F)(F)F)c3)cc2)nc2cccnc12 [Compound 13b, N-Methyl-2-(4-(3-(4-(4-methylpiperazin-1-yl)-3-(trifluoromethyl)phenyl)ureido)phenyl)-1,5-naphthyridine-4-carboxamide]
IC50 [1]: 15.7 µM | TGI [1]: 31.6 | TGI [2]: 43.3 µM | IC50 [2]: 17.4 µM | IC50 [3]: 1.68 µM | TGI [3]: 3.21 | IC50 [4]: 17.4 µM | TGI [4]: 35.4 | IC50 [5]: 18.5 µM | TGI [5]: 33.2 µM | IC50 [6]: 3.85 µM | TGI [6]: 25 µM | IC50 [7]: 15.6 µM | TGI [7]: 29.8 µM | IC50 [8]: 2.79 µM | TGI [8]: 14.9 | IC50 [9]: ≥ 100 µM | TGI [9]: 100 | IC50 [10]: 17.7 µM | TGI [10]: 36.6 µM | TGI [11]: 33.2 µM | IC50 [11]: 16.8 µM | IC50 [12]: 18.4 µM | TGI [12]: 33.9 µM | IC50 [13]: 6.54 µM | TGI [13]: 100 | IC50 [14]: 15.3 µM | TGI [14]: 28.8 µM | IC50 [15]: 16.1 µM | TGI [15]: 29.6 | IC50 [16]: 9.59 µM | TGI [16]: 25.8 µM | IC50 [17]: 2.32 ± 0.02 µM | IC50 [18]: 17.5 µM | TGI [18]: 31.7 µM | IC50 [19]: 16.4 µM | TGI [19]: 32.2 µM | TGI [20]: 36.9 µM | IC50 [20]: 18 µM | IC50 [21]: 16.2 µM | TGI [21]: 38.7 | TGI [22]: 4.19 µM | IC50 [22]: 1.92 µM | TGI [23]: 32.9 µM | IC50 [23]: 14.8 µM | TGI [24]: 38.9 µM | IC50 [24]: 15 µM | TGI [25]: 28.4 | IC50 [25]: 14.9 µM | TGI [26]: 4.33 µM | IC50 [26]: 2.07 µM | IC50 [27]: 1.48 ± 0.09 µM | IC50 [28]: 3.19 µM | TGI [28]: 10.2 µM | TGI [29]: 43.4 µM | IC50 [29]: 17 µM | TGI [30]: 14.7 | IC50 [30]: 3.43 µM | TGI [31]: 32.8 | IC50 [31]: 16.8 µM | IC50 [32]: 17.9 µM | TGI [32]: 33.9

CC(C)NC(=O)c1cc(-c2ccc(NC(=O)Nc3ccc(N4CCN(C)CC4)c(C(F)(F)F)c3)cc2)nc2cccnc12 [Compound 13e, N-Isopropyl-2-(4-(3-(4-(4-methylpiperazin-1-yl)-3-(trifluoromethyl)phenyl)ureido)phenyl)-1,5-naphthyridine-4-carboxamide]
IC50 [1]: 0.74 µM | TGI [1]: 1.62 | TGI [2]: 1.66 µM | IC50 [2]: 0.8 µM | IC50 [3]: 0.64 µM | TGI [3]: 1.18 | IC50 [4]: 0.84 µM | TGI [4]: 1.95 | IC50 [5]: 0.71 µM | TGI [5]: 1.31 µM | IC50 [6]: 0.98 µM | TGI [6]: 3.48 µM | IC50 [7]: 0.71 µM | TGI [7]: 1.55 µM | IC50 [8]: 0.76 µM | TGI [8]: 2.89 | IC50 [9]: 1 µM | TGI [9]: 2.60 | IC50 [10]: 0.74 µM | TGI [10]: 1.39 µM | TGI [11]: 1.56 µM | IC50 [11]: 0.73 µM | IC50 [12]: 0.66 µM | TGI [12]: 1.24 µM | IC50 [13]: 0.7 µM | TGI [13]: 1.33 | IC50 [14]: 0.69 µM | TGI [14]: 1.43 µM | IC50 [15]: 0.65 µM | TGI [15]: 1.22 | IC50 [16]: 0.65 µM | TGI [16]: 1.33 µM | IC50 [17]: 1.76 ± 0.01 µM | IC50 [18]: 0.67 µM | TGI [18]: 1.21 µM | IC50 [19]: 0.87 µM | TGI [19]: 1.94 µM | TGI [20]: 1.13 µM | IC50 [20]: 0.57 µM | IC50 [21]: 0.77 µM | TGI [21]: 2.12 | TGI [22]: 1.37 µM | IC50 [22]: 0.67 µM | TGI [23]: 1.36 µM | IC50 [23]: 0.71 µM | TGI [24]: 2.19 µM | IC50 [24]: 0.71 µM | TGI [25]: 3.97 | IC50 [25]: 0.59 µM | TGI [26]: 1.41 µM | IC50 [26]: 0.7 µM | IC50 [27]: 0.8 ± 0.04 µM | IC50 [28]: 0.7 µM | TGI [28]: 1.31 µM | TGI [29]: 24.7 µM | IC50 [29]: 7.62 µM | TGI [30]: 1.34 | IC50 [30]: 0.67 µM | TGI [31]: 1.86 | IC50 [31]: 0.85 µM | IC50 [32]: 0.77 µM | TGI [32]: 1.49
